Assay results reported in patent US10160762B2, “6-alkyl dihydropyrazolopyrimidinone compounds as PDE2 inhibitors” (Merck Sharp & Dohme Corp., priority 2015, dated 2018).
Like-named read-outs stand apart in the source and are kept apart here.

Molecular target: T1, Rhesus PDE2A3 (Macaca mulatta, UniProt B3VTJ2)
T1 construct: made in house; host or cells: AD293 cells, transient transfection; supernatant of sonicated lysate
T1 sequence (B3VTJ2 1-941): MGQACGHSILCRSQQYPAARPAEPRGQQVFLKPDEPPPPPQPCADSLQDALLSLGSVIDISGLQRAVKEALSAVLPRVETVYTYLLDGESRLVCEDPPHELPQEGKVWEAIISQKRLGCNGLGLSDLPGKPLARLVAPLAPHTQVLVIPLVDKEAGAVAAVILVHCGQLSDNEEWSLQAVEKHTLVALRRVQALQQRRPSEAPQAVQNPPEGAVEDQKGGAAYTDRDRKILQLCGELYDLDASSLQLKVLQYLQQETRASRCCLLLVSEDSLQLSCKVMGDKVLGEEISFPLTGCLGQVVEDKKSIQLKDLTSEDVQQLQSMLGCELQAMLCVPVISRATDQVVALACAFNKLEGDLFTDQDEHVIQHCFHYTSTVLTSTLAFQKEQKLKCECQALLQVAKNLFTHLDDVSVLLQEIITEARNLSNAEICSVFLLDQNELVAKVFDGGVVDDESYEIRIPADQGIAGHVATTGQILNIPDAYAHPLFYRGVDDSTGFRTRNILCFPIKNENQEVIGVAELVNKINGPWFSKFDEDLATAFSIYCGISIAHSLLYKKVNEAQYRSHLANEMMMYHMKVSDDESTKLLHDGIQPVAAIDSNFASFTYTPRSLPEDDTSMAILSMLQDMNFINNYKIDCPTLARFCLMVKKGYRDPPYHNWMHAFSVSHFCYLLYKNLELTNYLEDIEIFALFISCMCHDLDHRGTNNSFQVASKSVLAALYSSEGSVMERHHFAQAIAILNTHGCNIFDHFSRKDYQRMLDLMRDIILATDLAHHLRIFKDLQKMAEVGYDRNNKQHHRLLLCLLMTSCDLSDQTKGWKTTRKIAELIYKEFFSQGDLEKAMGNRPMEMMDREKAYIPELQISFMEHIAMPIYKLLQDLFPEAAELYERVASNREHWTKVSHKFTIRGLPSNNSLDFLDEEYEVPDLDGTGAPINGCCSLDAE
Experiment: PDE2 fluorescence polarization (IMAP FP) inhibition assay, rhesus PDE2A3
Type: biochemical, rhesus macaque
Method in brief: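 Enzyme source was the lysate supernatant of AD293 cells transiently expressing rhesus PDE2A3, diluted to give 20% conversion of 50 nM FAM-cAMP, with 1 µM cGMP as activator. Buffer was 10 mM Tris pH 7.2, 10 mM MgCl2, 1 mM DTT.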

[1] = Lab B, read-out: Rhesus PDE2 Ki (nM) Lab B
[2] = Lab A, read-out: Rhesus PDE2 Ki (nM) Lab A

Row | Ki [1] [nM] | Ki [2] [nM] | SMILES
1 | 0.9 |  | Cc1nc2c(c(CO)nn2C(c2ccc(OC(F)(F)F)c(F)c2)C(C)C)c(=O)[nH]1 (single isomer, unassigned) [Example 127, (S)- or (R)-1-(1-(3-Fluoro-4-(trifluoromethoxy)phenyl)-2-methylpropyl)-3-(hydroxymethyl)-6-methyl-1H-pyrazolo[3,4-d]pyrimidin-4(5H)-one]
2 |  | 147 | Cc1nn(C(C)c2ccc(C(F)(F)F)cc2)c2nc(C3CCC3)[nH]c(=O)c12 (stereo not drawn) [Example 39, 6-Cyclobutyl-3-methyl-1-{1-[4-(trifluoromethyl)phenyl]ethyl}-1,5-dihydro-4H-pyrazolo[3,4-d]pyrimidin-4-one]
3 | 56 | 54 | Cc1nc2c(c(CO)nn2C(C)(C)c2ccc(C(F)(F)F)cc2)c(=O)[nH]1 [Example 9, 3-(Hydroxymethyl)-6-methyl-1-{1-methyl-1-[4-(trifluoromethyl)phenyl]ethyl}-1,5-dihydro-4H-pyrazolo[3,4-d]pyrimidin-4-one]
4 | 0.15 |  | Cc1nc2c(c(CF)nn2C(c2ccc(C(F)(F)F)cc2)C(C)C)c(=O)[nH]1 (single isomer, unassigned) [Example 213, (S)- or (R)-3-(Fluoromethyl)-6-methyl-1-(2-methyl-1-(4-(trifluoromethyl)phenyl)propyl)-1H-pyrazolo[3,4-d]pyrimidin-4(5H)-one]
5 |  | 4.8 | COc1ccc(Cc2nc3c(c(C)nn3C(C)c3ccc(C(F)(F)F)cc3)c(=O)[nH]2)cc1OC (stereo not drawn) [Example 44, 6-(3,4-Dimethoxybenzyl)-3-methyl-1-{1-[4-(trifluoromethyl)phenyl]ethyl}-1,5-dihydro-4H-pyrazolo[3,4-d]pyrimidin-4-one]
6 | 123 | 41 | Cc1nc2c(c(CF)nn2C(C)c2ccc(OC(F)(F)F)cc2)c(=O)[nH]1 (single isomer, unassigned) [Example 206, (R)- or (S)-3-(Fluoromethyl)-6-methyl-1-(1-(4-(trifluoro-methoxy-)phenyl)ethyl)-1H-pyrazolo[3,4-d]pyrimidin-4(5H)-one]
7 | 103 | 39 | Cc1nc2c(c(CO)nn2C(C)c2ccc(OC(F)(F)F)c(F)c2)c(=O)[nH]1 (single isomer, unassigned) [Example 10, (R)- or (S)-1-(1-(3-Fluoro-4-(trifluoromethoxy)phenyl)ethyl)-3-(hydroxymethyl)-6-methyl-1H-pyrazolo[3,4-d]pyrimidin-4(5H)-one]
8 | 54 |  | Cc1nc2c(c(CF)nn2C(c2ccc(C(F)(F)F)cc2)C(C)C)c(=O)[nH]1 (single isomer, unassigned) [Example 212, (R)- or (S)-3-(Fluoromethyl)-6-methyl-1-(2-methyl-1-(4-(trifluoromethyl)phenyl)propyl)-1H-pyrazolo[3,4-d]pyrimidin-4(5H)-one]
9 | 1.2 | 0.87 | Cc1nc2c(c(CF)nn2C(c2ccc(C(F)(F)F)cc2)C2CC2)c(=O)[nH]1 (stereo not drawn) [Example 231, 1-(cyclopropyl(4-(trifluoromethyl)phenyl)methyl)-3-(fluoromethyl)-6-methyl-1H-pyrazolo[3,4-d]pyrimidin-4(5H)-one]
10 | 5.6 | 1.8 | Cc1nc2c(c(CO)nn2C(C)c2ccc(C3CC3)cc2)c(=O)[nH]1 (stereo not drawn) [Example 3, 1-(1-(4-Cyclopropylphenl)ethyl)-3-(hydroxymethyl)-6-methyl-1H-pyrazolo[3,4-d]pyrimidin-4(5H)-one]
11 | 456 | 216 | Cc1nc2c(c(CO)nn2C(C)c2ccc(C(F)(F)F)cc2)c(=O)[nH]1 (single isomer, unassigned) [Example 26, (R)- or (S)-3-(Hydroxymethyl)-6-methyl-1-{1-[4-(trifluoromethyl)phenyl]ethyl}-1,5-dihydro-4H-pyrazolo[3,4-d]pyrimidin-4-one]
12 |  | 164 | CCOCCc1nc2c(c(C)nn2C(C)c2ccc(C(F)(F)F)cc2)c(=O)[nH]1 (stereo not drawn) [Example 35, 6-(2-Ethoxyethyl)-3-methyl-1-(1-(4-(trifluoromethyl)phenyl)ethyl)-1H-pyrazolo[3,4-d]pyrimidin-4(5H)-one]
13 | ~0.28 | 0.17 | COc1ccc(Cc2nc3c(c(CF)nn3C(C)c3ccc(C(F)(F)F)cc3)c(=O)[nH]2)cc1OC (single isomer, unassigned) [Example 222, (R)- or (S)-6-(3,4-Dimethoxybenzyl)-3-(fluoromethyl)-1-(1-(4-(trifluoromethyl)phenyl)ethyl)-1,5-dihydro-4H-pyrazolo[3,4-d]pyrimidin-4-one]
14 |  | 58 | Cc1nn(C(C)c2ccc(C(F)(F)F)cc2)c2nc(C3CC3)[nH]c(=O)c12 (stereo not drawn) [Example 42, 6-Cyclopropyl-3-methyl-1-{1-[4-(trifluoromethyl)phenyl]ethyl}-1,5-dihydro-4H-pyrazolo[3,4-d]pyrimidin-4-one]
15 | 0.84 | 0.46 | Cc1nc2c(c(CF)nn2C(C)c2ccc(OC(F)(F)F)cc2)c(=O)[nH]1 (single isomer, unassigned) [Example 207, (S)- or (R)-3-(Fluoromethyl)-6-methyl-1-(1-(4-(trifluoromethoxy)phenyl)ethyl)-1H-pyrazolo[3,4-d]pyrimidin-4(5H)-one]
16 | 6.9 |  | Cc1nc2c(c(CO)nn2C(c2ccc(C(F)(F)F)c(F)c2)C(C)(C)C)c(=O)[nH]1 (single isomer, unassigned) [Example 129, (S)- or (R)-1-(1-(3-Fluoro-4-(trifluoromethyl)phenyl)-2,2-dimethylpropyl)-3-(hydroxyl-methyl)-6-methyl-1H-pyrazolo-[3,4-d]pyrimidin-4(5H)-one]
17 | 2.2 | 0.75 | Cc1nc2c(c(CO)nn2C(c2ccc(C(F)(F)F)cc2)C2CC2)c(=O)[nH]1 (stereo not drawn) [Example 28, 1-(Cyclopropyl(4-(trifluoromethyl)phenyl)methyl)-3-(hydroxymethyl)-6-methyl-1H-pyrazolo[3,4-d]pyrimidin-4(5H)-one]
18 | 2.8 |  | Cc1nc2c(c(CO)nn2[C@H](c2ccc(C(C)(C)C)cc2)C(C)C)c(=O)[nH]1 [Example 159, (S)-1-(1-(4-tert-Butylphenyl)-2-methylpropyl)-3-(hydroxymethyl)-6-methyl-1H-pyrazolo[3,4-d]pyrimidin-4(5H)-one]
19 |  | 113 | CCC(CCCc1ccccc1)n1nc(C)c2c(=O)[nH]c(C)nc21 (stereo not drawn) [Example 338, 1-(1-ethyl-4-phenylbutyl)-3,6-dimethyl-1,5-dihydro-4H-pyrazolo[3,4-d]pyrimidin-4-one]
20 | 17 |  | COc1ccc(C(=O)c2nc3c(c(C(F)F)nn3C(C)c3ccc(C(F)(F)F)cc3)c(=O)[nH]2)cc1OC (stereo not drawn) [Example 198, 3-(Difluoromethyl)-6-(3,4-dimethoxybenzoyl)-1-(1-(4-(trifluoromethyl)phenyl)ethyl)-1H-pyrazolo[3,4-d]pyrimidin-4(5H)-one]
21 | 28 |  | COc1ccc(Cc2nc3c(c(C(F)F)nn3C(C)c3ccc(C(F)(F)F)cc3)c(=O)[nH]2)cc1OC (single isomer, unassigned) [Example 196]
22 |  | 257 | Cc1nn(C(C)c2ccc(C(F)(F)F)cc2)c2nc(C(C)C)[nH]c(=O)c12 (stereo not drawn) [Example 43, 3-Methyl-6-(1-methylethyl)-1-{1-[4-(trifluoromethyl)phenyl]ethyl}-1,5-dihydro-4H-pyrazolo[3,4-d]pyrimidin-4-one]
23 | 1 | 0.62 | Cc1nc2c(c(CO)nn2C(c2ccc(C(F)(F)F)cc2)C(C)C)c(=O)[nH]1 (stereo not drawn) [Example 5, 3-(Hydroxymethyl)-6-methyl-1-(2-methyl-1-(4-(trifluoromethyl)phenyl)propyl)-1H-pyrazolo[3,4-d]pyrimidin-4(5H)-one]
